# In US8354429B2, “Inhibitors of human immunodeficiency virus replication” (priority 2007, dated 2013):
# Key:
# Format in all cases: cell-based
# [1] = system: HIV-1 2.12 virus with Ala124/Thr125 variant integrase (HXB2 integrase); test: C8166 HIV-1 luciferase assay (EC50), A124/T125 integrase variant virus; conditions: Human immunodeficiency virus 1, HXB2, C8166, read-out: EC50 (nM) A124/T125
# Source text: (§1) C8166 cells are derived from a human T-lymphotrophic virus type 1 immortalized but nonexpressing line of cord blood lymphocytes (NIH AIDS reagent 404) and are highly permissive to HIV-1 infection. The pGL3 Basic LTR/TAR plasmid is made by introducing the HIV-1 HxB2 LTR sequence from nucleotide −138 to +80 (Sca1-HindIII) upstream of the luciferase gene in the pGL3 Basic Vector (a promoterless luciferase expression vector from Promega catalogue #E1751) with the gene for blasticidine resistance cloned in. The reporter cells are made by electroporating C8166 cells with pGL3 Basic LTR/TAR and selecting positive clones with blasticidine. Clone C8166-LTRluc #A8-F5-G7 was selected by 3 consecutive rounds of limiting dilution under blasticidine selection. Cultures are maintained in complete media (consisting of: Roswell Park Memorial Institute medium (RPMI) 1640+10% FBS+10^−5 M β-mercaptoethanol+10 μg/mL gentamycin) with 5 μg/mL blasticidine, however, blasticidine selection is removed from the cells before performing the viral replication assay.
# (§2) Serial dilutions of HIV-1 inhibitor compounds are prepared in complete media from 10 mM DMSO stock solutions. Eleven serial dilutions of 2.5× are made at 8× desired final concentration in a 1 ml deep well titer plate (96 wells). The 12th well contains complete media with no inhibitor and serves as the positive control. All samples contain the same concentration of DMSO 0.1% DMSO). A 25 μL aliquot of inhibitor is added, to triplicate wells, of a 96 well tissue culture treated clear view black microtiter plate (Corning Costar catalogue #3904). The total volume per well is 200 μL of media containing cells and inhibitor. The last row is reserved for uninfected C8166 LTRluc cells to serve as the background blank control and the first row is media alone.
# (§3) C8166 LTRluc cells are counted and placed in a minimal volume of complete RPMI 1640 in a tissue culture flask (ex. 30×10^6 cells in 10 mL media/25 cm^2 flask). Cells are infected with HIV-1 or virus with variant integrase generated as described below at a […] (moi) of 0.005. Cells are incubated for 1.5 h at 37° C. on a rotating rack in a 5% CO2 incubator and re-suspended in complete RPMI to give a final concentration of 25,000-cells/175 μL. 175 μL of cell mix is added to wells of a 96 well microtiter plate containing 25 μL 8× inhibitors. 25,000 uninfected C8166-LTRluc cells/well in 200 μL complete RPMI are added to the last row for background control. Cells are incubated at 37° C. in 5% CO2 incubator for 3 days.
# (§4) 50 μL Steady Glo (luciferase substrate T1/2=5 hours Promega catalogue #E2520) is added to each well of the 96 well plate. The relative light units (RLU) of luciferase is determined using the LUMIstar Galaxy luminometer (BMG LabTechnologies). Plates are read from the bottom for 2 seconds per well with a gain of 240.
# (§5) The level of inhibition (% inhibition) of each well containing inhibitor is calculated as follows: […]
# (§6) The calculated % inhibition values are used to determine EC50, slope factor (n) and maximum inhibition (Imax) by the non-linear regression routine NLIN procedure of SAS using the following equation: […]
# (§7) The 2.12 virus with NL4.3 strain of HIV-1 integrase (SEQ ID NO: 1) is used for the Thr124/Thr125 variant integrase residues and HXB2 integrase is introduced into the 2.12 virus for the Ala124/Thr125 variant integrase residues. The remaining variants viruses are generated by site directed mutagenesis of NL4.3 integrase to introduce the Ala124/Ala125, Thr124/Ala125, Asn124/Thr125, or Asn124/Ala125 variants in the 2.12 virus. Molecular biology and generation of virus are performed in a similar manner to Doyon et al. J. Virol. 70(6):3763-9 (1996). Briefly, site directed mutagenesis is used to introduce silent mutations in the integrase gene of the 2.12 virus. […]
# [2] = system: HIV-1 2.12 virus with Ala124/Ala125 variant integrase; test: C8166 HIV-1 luciferase assay (EC50), A124/A125 integrase variant virus; conditions: Human immunodeficiency virus 1, C8166, read-out: EC50 (nM) A124/A125
# Source text: as §1, §2, §3, §4, §5, §6, §7
# [3] = system: HIV-1 2.12 virus with Thr124/Thr125 variant integrase (NL4.3 integrase); test: C8166 HIV-1 luciferase assay (EC50), T124/T125 integrase variant virus; conditions: Human immunodeficiency virus 1, C8166, read-out: EC50 (nM) T124/T125
# Source text: as §1, §2, §3, §4, §5, §6, §7
# [4] = system: HIV-1 2.12 virus with Thr124/Ala125 variant integrase; test: C8166 HIV-1 luciferase assay (EC50), T124/A125 integrase variant virus; conditions: Human immunodeficiency virus 1, C8166, read-out: EC50 (nM) T124/A125
# Source text: as §1, §2, §3, §4, §5, §6, §7
Structure (SMILES),EC50 [1] [nM],EC50 [2] [nM],EC50 [3] [nM],EC50 [4] [nM]
Cc1ccc(-c2c([C@H](OC(C)(C)C)C(=O)O)c(C)nc3ccccc23)cc1C [Compound 1008],11,55,59,49
Cc1nc2ccccc2c(-c2ccc(Cl)cc2F)c1[C@H](OC(C)(C)C)C(=O)O [Compound 1010],12,49,41,76
Cc1nc2ccccc2c(-c2ccc3c(c2)CCO3)c1[C@H](OC(C)(C)C)C(=O)O [Compound 1014],19,68,87,76
Cc1nc2ccccc2c(-c2ccc(CF)cc2F)c1[C@H](OC(C)(C)C)C(=O)O [Compound 1018],35,110,55,93
Cc1nc2ccccc2c(-c2ccc3c(c2)CCC3)c1[C@H](OC(C)(C)C)C(=O)O [Compound 1023],12,37,29,31
Cc1nc2ccccc2c(-c2ccc3c(c2)C(C)CCO3)c1[C@H](OC(C)(C)C)C(=O)O (stereo partly drawn) [Compound 1052],28,64,120,59
Cc1nc2ccccc2c(-c2ccc3ncsc3c2)c1[C@H](OC(C)(C)C)C(=O)O [Compound 1136],91,170,200,140
Cc1nc2ccccc2c(OC(C)C)c1C(C(=O)O)c1ccc2c3c(ccnc13)CCO2 (stereo not drawn) [Compound 2001],71,67,110,120
CCC(C)(C)Oc1c(C(C(=O)O)c2ccc3c4c(ccnc24)CCO3)c(C)nc2ccccc12 (stereo not drawn) [Compound 2002],9.9,13,19,24
